Results as given in US11065263B2, “Sterol composition in pumpkin seed oil and application thereof, and drug for treating benign prostatic hyperplasia” (Hunan Zhongkewentai Bio-tech co.Ltd, priority 2019, dated 2021).

Tests used:
Type in all cases: in vivo, SD (Sprague Dawley) rats
[1] = test system: benign prostatic hyperplasia rats treated with testosterone propionate; experiment: prostate weight and prostate index in benign prostatic hyperplasia rats treated with testosterone propionate; settings: finasteride group
Protocol: : modeling, particularly comprising steps of: […]: respectively weighing six groups of SD rats; […] The drug is administrated by gavage once a day; after administrating for consecutive 6 days, administration is stopped for one day; and an administration cycle is 4 week. Respectively weighing SD rats of six groups two hours after last administration and after fasting for 12 hours; killing the SD rats, separating the prostate of the SD rats through the tweezers, and weighing the prostate;

[2] = test system: prostate tissue of benign prostatic hyperplasia rats; experiment: prostate tissue appearance and HE stain morphology in benign prostatic hyperplasia rats; settings: finasteride group, 0.28 mg/kg
Text: The drug is administrated by gavage once a day; after administrating for consecutive 6 days, administration is stopped for one day; and an administration cycle is 4 week. killing the SD rats, separating the prostate of the SD rats through the tweezers, and weighing the prostate; […]

[3] = test system: SRC-1 (steroid receptor coactivator-1); experiment: immunohistochemical measurement of SRC-1 in the prostate; settings: finasteride group, 0.28 mg/kg
Protocol: S3023: according to a dose of 4 mg/kg, which is calculated through equivalent conversion according to the body surface areas of humans and animals, hypodermically injecting the testosterone propionate injection to each SD rat for consecutive 30 days, and injecting normal saline of same volume to the SD rats of normal group, so as to finish modeling.
The high-dose group adopts an administration dose of 10 mg/kg (which is calculated through equivalent conversion according to the body surface areas of humans and animals; when the weight of the SD rat is 1 kg, 10 mg of the sterol composition in the pumpkin seed oil prepared through the example 1 is administrated), the medium-dose group adopts an administration dose of 3.3 mg/kg, and the low-dose group adopts an administration dose of 1.1 mg/kg, which respectively correspond to 20 times, 6.66 times, and 2.22 times the clinical dose. Before drug administration, suspensions of 4.5 mg/mL, 1.5 mg/mL, and 0.5 mg/mL are respectively prepared with the corn oil. […] The drug is administrated by gavage once a day; after administrating for consecutive 6 days, administration is stopped for one day; and an administration cycle is 4 week. […]

5α-reductase = experiment: RT-qPCR genetic expression of 5α-reductase in the prostate; settings: finasteride group, 0.28 mg/kg, compared with the model group
[4] = rat weight after 4 week administration in benign prostatic hyperplasia rats; settings: finasteride group, 0.28 mg/kg by gavage once a day

## CC(C)(C)NC(=O)[C@H]1CC[C@H]2[C@@H]3CC[C@H]4NC(=O)C=C[C@]4(C)[C@H]3CC[C@]12C [Finasteride, finasteride]
[1]; 0.28 mg/kg
  decrease of prostate weight compared with the model group: 19.1%
[1]; 0.28 mg/kg by gavage once a day, 4 week
  Prostate weight: 868.4 ± 188.3 mg
[2]
  HE stain morphology of the prostate tissue (FIG. 3): part of the multiple-layer epithelial cells in the prostate tissue recover to the single-layer epithelial cells
  volume of the prostate tissue compared with the model group (FIG. 2): obviously decreased
[3]
  genetic expression of SRC-1, immunohistochemical method (FIG. 4): obviously decreased
5α-reductase
  genetic expression quantity of 5α-reductase, RT-qPCR (FIG. 5): obviously decreased
[4]
  Rat weight: 439.2 ± 32.7 g
